Data set [1] relates to human high grade serous ovarian cancer cells. Kind of data set: Cell growth/viability by luminescent ATP with PARP inhibitors. The class given is cell-based. The conditions noted are these: with Olaparib or Talazoparib. The procedure: Cell growth/viability is determined from luminescent detection of cell ATP concentration.
Data set [2] concerns MDA-MB-231 cells. Kind of data set: CellTiter-Glo relative growth (luminescent ATP). The data set is classed as cell-based. The settings on record: for EC50 for growth inhibition, compared between compounds: ATP Celltiter Glo proliferation assay, n=3. The procedure: HEK 293T, MDA-MB-231, MDA-MB-468, Hs578T and BT-549 cells (American Type Culture Collection) were cultured at 37° C. with 5% CO2 in Dulbecco's modified Eagle's medium containing (DMEM) (Gibco) supplemented with 5% FBS (HyClone), 100 units/ml penicillin, […] streptomycin (Gibco), non-essential amino acids (Gibco) and 2 mM 1-glutamine (Gibco). Doxorubicin (Selleckchem), cisplatin (Sigma) or olaparib (Selleckchem) were dissolved in DMSO or DMF (cisplatin). […] Pure NO2-OA was diluted in DMSO and added to cells after solvation in assay media. Relative cell numbers were compared by measuring the luminescent signal generated by ATP using the CellTiter-Glo (Promega) assay. Cells were plated in a 96-well plate at 5,000 (MDA-MB-231) or 6,600 (BT549 or Hs578T) cells per well.
Data represent the mean±SEM from 3 independent experiments unless otherwise noted. A p value<0.05 was considered statistically significant. Non-linear curves were generated in GraphPad Prism 7.0 (GraphPad Software, La Jolla, CA, USA) for statistical analysis. EC50 values and standard error were calculated from three independent experiments utilizing a non-linear dose response variable slope model. Significance was tested by one-way ANOVA for multiple groups with Tukey posttest or by t-test when groups were less than three. RAD51 foci number was analyzed with ImageJ. Nuclear boundaries were individually identified in more than 50 cells per treatment group in three independent experiments.
The growth of BT-549 cells was not affected. […] MDA-MB-231 cells were plated in a 96 well plate and treated with talazoparib (0.01-75 μM) plus OA-NO2 or NDA-NO2 (0.2-12 μM) daily for 3 days. Growth inhibition (relative cell numbers) of MDA-MB-231 cells was determined by luminescent detection of ATP (CellTiter-Glo) (FIG. 1K).
For orientation: Cellular ATP, detected with luciferase, serves as a proxy for viable cell number.

The subject of data set [3] is homologous recombination (DR-GFP, U2OS cells). Kind of data set: DR-GFP HR reporter assay in U2OS cells. The conditions noted are these: FIG. 16B. The class given is cell-based. The protocol: Measurements of NHEJ, HR, Alt-EJ and SSA assays were performed as previously described. HR activity was measured by counting GFP-positive cells by flow cytometry at the MWRI flow cytometry core using a BD LSRII (BD Biosciences). RAD51 overexpressing cells were generated by stable transfection of pLVX RAD51 IRES Neo and selection with geneticin (Invitrogen).
U2OS cells were prepared as above, but 5 h following compound treatment, cells were transferred into the Incucyte Zoom (Essen) live-cell imaging automated fluorescence microscope at 37° C. with 5% CO2. Cell confluence and green object count per mm2 were determined using Incucyte Zoom software. Green object count per field was normalized to cell confluency to correct for NO2—OA-induced effects on cell proliferation.
NO2-OA-dependent effects on HR DNA repair were further investigated by utilizing a DRGFP reporter assay. This analysis quantifies intracellular recombination of an integrated cDNA cassette of two tandem non-fluorescent GFP constructs following introduction of an I-SceI cleavage to the system by measuring the fluorescent GFP protein that is produced following successful recombination. […] A novel strategy was used to measure the kinetics of changes in HR in live cells by using automated fluorescence microscopy to track the emergence of GFP positive cells over time in monolayers, as opposed to making static measurements of detached cells using flow cytometry. […] This was indicated by an absence of changes in the number of GFP positive cells following I-SceI cleavage after 48 h by flow cytometric analysis or over 68 h by live-cell fluorescence microscopy (FIGS. 2C, 2D).

For data set [4], the system named is NF-κB transcriptional activity. Kind of data set: NF-κB luciferase reporter. The data set is classed as cell-based. The settings on record: MDA-MB-231 and MDA-MB-468 cells, 5 μM 2 hr then TNFα 20 ng/mL 4 hr. The procedure:
Luciferase-chemiluminescence-based analysis of NF-κB transcriptional activity was performed. MDA-MB-231 and MDA-MB-468 cells (˜70% confluence) in 12-well plates were transiently transfected with a NF-κB-luciferase reporter plasmid (Stratagene, La Jolla, CA) with Lipofectamine 3000. […] Each transfection was performed in triplicate. Luciferase activity was measured using the Dual-luciferase assay kit (Promega). Relative light units (RLU) were measured using a 96-well plate luminometer, according to the manufacturer's instructions (Victor II, PerkinElmer Life Sciences). Protein concentration was determined using the BCA Assay (Thermo Fisher Scientific). Data represents the ratio of treated samples to controls in the context of mean RLU/protein content, +/−SD. Three individual experiments were done, and statistical significance was determined by Kruskal-Wallis test followed by Dunn's post-test with Bonferroni corrections for multiple comparisons.

In the next data set the test system is IKKβ. The experiment in a line: TNFα-induced IKKβ phosphorylation, IκBα phosphorylation and degradation. The data set is classed as cell-based. The procedure:
All studies used two TNBC cell lines, MDA-MB-231 and MDA-MB-468. […] For IκBα degradation, cells were treated as described above and stimulated with 20 ng/mL TNFα for 10 min.
(§1) Western blotting was performed. 20-60 μg of total lysates per lane were loaded on 7%, 10%, or 12% SDS-PAGE and transferred onto nitrocellulose or polyvinylidene difluoride membranes (Bio-Rad). The membranes were probed with primary antibodies against caspase-3, multi-drug resistance protein-1 (MRP1), poly [ADP ribose] polymerase-1 (PARP-1), ubiquitin, RelA; cyclin D1, p21, caspase-9, MRP4, IKKβ, pIKKβ, IκBα, or pIκBα (Cell Signaling); caspase-8 (R&D Systems). Samples were normalized to β-actin (Sigma-Aldrich) or GAPDH (Trevigen).

For another data set, the system named is MDA-MB 231 TNBC cells. Kind of data set: Metabolism in MDA-MB-231 cells by HPLC-MSMS. The class given is in vitro ADME. The conditions noted are these: for omega hydroxylation and carboxylation: 10 uM; for omega hydroxylation and carboxylation / cysteine adduct formation: cell media and cell homogenate. The protocol:
FIG. 18. […] Growth inhibition was assessed using the ATP Celltiter Glo proliferation assay and compounds were used at different concentration to determine their EC50. CP-1 had the lowest EC50 followed by 7-NDA and 8-NDA. […] The different metabolic pathways of 7-NDA and 8-NDA have been characterized in MDA-MB-231 TNBC cells. MDA-MB 231 TNBC cells incorporate and metabolize 7-NDA and 8-NDA through beta oxidation (FIG. 19). Inactivation of the active 7-NDA and 8-NDA nitroalkene group is achieved through reduction to a nitroalkane (FIG. 20).
FIG. 19. […] Dinor 7-NDA corresponds to one beta-oxidation cycle while tetranor corresponds to two beta oxidation cycles. […] Formation of both Dinor and Tetranor 8-NDA are shown. Chromatograms correspond to the detection by HPLC-MSMS of the different compounds in negative ion mode using MRMs on a triple quadrupole mass spectrometer.
FIG. 20. […] Chromatograms correspond to the detection by HPLC-MSMS of the different compounds in negative ion mode using MRMs on a triple quadrupole mass spectrometer.
FIG. 21. […] Chromatograms correspond to the detection by HPLC-MSMS of the different using specific MRM transitions on a triple quadrupole mass spectrometer.
FIG. 22. […] Dicarboxylic acids of both 7-NDA and 8-NDA have been detected in cell media and cell homogenate from cell treated with 10 uM 7-NDA or 8-NDA. Chromatograms correspond to the detection by HPLC-MSMS of the different using specific MRM transitions on a triple quadrupole mass spectrometer.

The subject of data set [5] is MDA-MB-231 and MDA-MB-468 cells. Kind of data set: FACS cell cycle analysis. The data set is classed as cell-based. The settings on record: MCF-10A, MDA-MB-231 and MDA-MB-468 cells, 24 hr. The procedure:
Adherent and nonadherent cells were collected, centrifuged at 2000×rpm for 10 min, washed with ice-cold phosphate-buffered saline, fixed with cold 70% ethanol at 4° C. for 30 mins, and stained with 50 μg/mL propidium iodide (Sigma-Aldrich). FACS analysis was performed at the University of Pittsburgh Department of Immunology Unified Flow Core Facility. Three individual experiments were done, and statistical comparisons among phases (G0/G1, S, and G2/M) were determined by one-way analysis of variance followed by Tukey post-test.

The test system of data set [6] is RelA in MDA-MB-231 and MDA-MB-468 cells. Kind of data set: RelA protein level and polyubiquitination. The class given is cell-based. The settings on record: 5 μM, 24 hr. The protocol: Lysates were clarified by centrifugation at 14,000×g for 10 min. Protein lysates (1 mg) were incubated with anti-RelA antibody and Protein G/A conjugated agarose beads (EMD Millipore, Bedford, MA) at 4° C., overnight. Immunoprecipitation fraction were obtained by centrifugation at 14,000×g for 1 min at RT and washed with lysis buffer three times. The immunoprecipitated RelA was resolved by 8% SDSPAGE gel, and transferred to nitrocellulose membrane (Bio-Rad) for immunoblotting probed with an anti-ubiquitin antibody (Santa Cruz Biotechnology). The blot was then stripped and probed with an anti-RelA antibody to assess amounts of RelA protein pull-down.
as §1

Data set [7] relates to MDA-MB-231 cells. The experiment in a line: Cell growth assay (FluoReporter dsDNA). The data set is classed as cell-based. The settings on record: TNBC cell lines MDA-MB-231 and MDA-MB-468, 48 hr. The protocol: Cells were plated at a cell density of 5000 cells per well in 96-well plates. […] Cells were counted using the FluoReporter dsDNA quantitation kit (Molecular Probes) according to the manufacturer's instructions. Fluorescence was measured using a SpectraMax M2 plate reader (Molecular Devices). […] Three individual experiments were done (n=5/each), and statistical comparison between two cell lines across doses was determined by two-way analysis of variance followed by Tukey post-test.

The subject of the next data set is MDA-MB-468 cells. The experiment in a line: Matrigel cell invasion assay. The conditions noted are these: NO2-OA/NO2-SA 5 μM, JSH-23 10 μM, TNFα 20 ng/mL, 24 hr. The data set is classed as cell-based. The protocol: Cells were then suspended in migration media and placed in the top well of invasion chambers (EMD Millipore). Chemoattractant (5% FBS) was placed in the lower chamber for 24 hr at 37° C. to attract invasive cells. Cells were then harvested and invasion rates were determined according to manufacturer's protocol. Three individual experiments were done, and statistical comparison among treatments was determined by one-way analysis of variance followed by Tukey post-test.

Entries after “also recorded” stand apart in the source; their conditions may differ.

In the case of “methyl-ethyl-4-nitro-oct-4-enedioate [CP-1]”, the “concentration of PARP inhibitor needed for 50% tumor cell killing” value in [1] is reported as “lowers the concentration of the PARP inhibitors”. For the same molecule, the “EC50 for growth inhibition, compared between compounds” value with MDA-MB-231 cells [2] is “lower EC50 than OA-NO2; also recorded: lowest EC50”. Moreover, the “inhibition of homologous recombination” value in [3] is “inhibition of homologous recombination”.
Regarding `CCCCCCCCC=CCCCCCCCC(=O)O` [OA, octadec-9-enoic acid, reference compound], the “NF-κB-dependent transcription of luciferase” value in [4] is recorded as “no effect”. Also, in the data set on MDA-MB-231 cells [2], the “EC50 for growth inhibition, compared between compounds” value was “did not induce any growth inhibition”.
For the molecule `Cc1ccc(S(=O)(=O)/C=C/C#N)cc1` [BAY11-7082, 3[(4-methylphenyl)sulfonyl]-(2E)-propenenitrile, reference compound], the “TNFα-induced IKKβ phosphorylation” value with IKKβ (NO2-OA 5 μM or BAY11-7082 10 μM 2 hr, TNFα 20 ng/mL 5 min) is given as “diminished”. Besides, the “degradation of IκBα following TNFα stimulation” value in the data set with IKKβ (TNFα 20 ng/mL, 10 min) is on record as “inhibited the degradation of IκBβ”. Moreover, the IκBα phosphorylation entry in the data set with IKKβ (with proteasome inhibitor MG-132 10 μM) was “decreased IκBβ phosphorylation”.
Consider `CCCCCCCCCCC/C(=C\CCCCCC(=O)O)[N+](=O)[O-]` [8-NDA, 8-NO2-nonadec-7-enoic acid], for which the “EC50 for growth inhibition, compared between compounds” value in the data set with MDA-MB-231 cells [2] is “more sensitive to 7-NDA and 8-NDA when compared to OA-NO2”. Also, in the data set with MDA-MB 231 TNBC cells, the “formation of active nitroalkene beta-oxidation metabolites (dinor, tetranor)” value is given as “result in the active (structures having the reactive nitroalkene moiety) beta-oxidation products”; the “omega hydroxylation and carboxylation” value was “omega hydroxylation and carboxylation”; the cysteine adduct formation entry was “form cysteine adducts that are detected in cell media and cell homogenate”.
Regarding `CCCCCCCCC(CCCCCCCCC(=O)O)[N+](=O)[O-]` (stereo not drawn) [NO2—SA, 10-nitro-octadecanoic acid, reference compound], the “NF-κB-dependent transcription of luciferase” value in data set [4] is “no effect”. Also, the “cell cycle populations and regulatory proteins” value in data set [5] was “did not affect cell cycle populations”. Moreover, the RelA protein abundance entry in [6] is reported as “no effect”. In the data set on MDA-MB-231 cells [7], the TNBC cell growth entry was “did not affect TNBC cell growth”. The TNFα-induced invasion entry in the data set on MDA-MB-468 cells is “marginal effects”.
For the molecule `Cc1ccc(NCCCc2ccccc2)c(N)c1` [JSH-23, 4-Methyl-N1-(3-phenyl-propyl)-benzene-1,2-diamine], in the data set with MDA-MB-468 cells, the TNFα-induced invasion entry is on record as “inhibition of MDA-MB-468 cell invasion”.
`CCCCCCCCCCC/C=C(\CCCCCC(=O)O)[N+](=O)[O-]` [7-NDA, 7-NO2-nonadec-7-enoic acid]: the “EC50 for growth inhibition, compared between compounds” value in the data set on MDA-MB-231 cells [2] is “more sensitive to 7-NDA and 8-NDA when compared to OA-NO2”. Also, the “IC50 compared with NO2-OA” value with MDA-MB-231 cells [2] (FIG. 12) is listed as “lower IC50 compared NO2-OA”. Moreover, the “Combination index (CI), Chou-Talalay” value in the data set on MDA-MB-231 cells [2] (with talazoparib (0.01-75 μM), 0.2-12 μM, daily 3 days, CI<1 is synergistic) was “better combination indices; also recorded: better CI values compared to OA-NO2”. Besides, in the data set on MDA-MB 231 TNBC cells, the “formation of active nitroalkene beta-oxidation metabolites (dinor, tetranor)” value is recorded as “does not result in the formation of active, nitroalkene containing metabolites”; the “omega hydroxylation and carboxylation” value is “omega hydroxylation and carboxylation”; the cysteine adduct formation entry was “form cysteine adducts that are detected in cell media and cell homogenate”.

These data come from US12390435B2, “Electrophiles and electrophile pro-drugs as RAD51 inhibitors” (University of Pittsburgh—Of the Commonwealth System of …, priority 2018, dated 2025).
